What was measured:
[1] = target: Sodium-dependent dopamine transporter (Homo sapiens, UniProt Q01959)
Description: Inhibition of [3H]dopamine uptake at human DAT expressed in HEK293 cells

[2] = target: Sodium-dependent serotonin transporter (Homo sapiens, UniProt P31645); format: cell-based, HEK293
Description: Inhibition of [3H]5HT uptake at human SERT expressed in HEK293 cells

[3] = tested on: Plasmodium falciparum; assay: microbe, parasite or virus in culture; conditions: D6, 72 h
[4] = tested on: Plasmodium falciparum; assay: microbe, parasite or virus in culture; conditions: Dd2, 72 h
[5] = target: Sodium-dependent noradrenaline transporter (Homo sapiens, UniProt P23975)
Description: Inhibition of [3H]norepinephrine uptake at human NET expressed in HEK293 cells

[6] = cells; conditions: Mus musculus, C57BL/6J, Splenocyte, 72 h
Description: Cytotoxicity against C57BL/6J mouse splenocytes after 72 hrs by alamar blue assay

[7] = tested on: Plasmodium falciparum; assay: Chemosensitizing activity after 72 hrs against chloroquine-sensitive Plasmodium falciparum D6 infected human erythrocytes as IC50 ratio desethylchloroquine +/- 500 nM drug by SYBR green assay; format: functional
[8] = tested on: Plasmodium falciparum; assay: Chemosensitizing activity after 72 hrs against chloroquine-resistant Plasmodium falciparum Dd2 infected human erythrocytes as IC50 ratio desethylchloroquine +/- 500 nM by SYBR green assay; format: functional
[9] = target: Histamine H1 receptor (Homo sapiens, UniProt P35367); assay: biochemical; format: cell-based, CHO
Description: Displacement of [3H]pyrilamine from human histamine receptor subtype 1 expressed in CHO cells

[10] = tested on: Plasmodium falciparum; assay: Antimalarial activity after 72 hrs against chloroquine-resistant transporter 106/1'76N mutant Plasmodium falciparum infected human erythrocytes by SYBR green assay; format: functional, organism-based
[11] = tested on: Plasmodium falciparum; assay: Chemosensitizing activity after 72 hrs against chloroquine-sensitive Plasmodium falciparum D6 infected human erythrocytes as IC50 ratio quinine +/- 500 nM by SYBR green assay; format: functional
[12] = tested on: Plasmodium falciparum; assay: Antimalarial activity after 72 hrs against chloroquine-resistant transporter 106/1'76I mutant Plasmodium falciparum infected in human erythrocytes by SYBR green assay; format: functional, organism-based
[13] = tested on: Plasmodium falciparum; assay: Chemosensitizing activity after 72 hrs against chloroquine-resistant Plasmodium falciparum Dd2 infected human erythrocytes as IC50 ratio quinine +/- 500 nM by SYBR green assay; format: functional
[14] = tested on: Plasmodium falciparum; assay: Antimalarial activity after 72 hrs against chloroquine-resistant transporter 106/1'76T mutant Plasmodium falciparum infected human erythrocytes by SYBR green assay; format: functional, organism-based

Chain of Sodium-dependent noradrenaline transporter (P23975 whole entry): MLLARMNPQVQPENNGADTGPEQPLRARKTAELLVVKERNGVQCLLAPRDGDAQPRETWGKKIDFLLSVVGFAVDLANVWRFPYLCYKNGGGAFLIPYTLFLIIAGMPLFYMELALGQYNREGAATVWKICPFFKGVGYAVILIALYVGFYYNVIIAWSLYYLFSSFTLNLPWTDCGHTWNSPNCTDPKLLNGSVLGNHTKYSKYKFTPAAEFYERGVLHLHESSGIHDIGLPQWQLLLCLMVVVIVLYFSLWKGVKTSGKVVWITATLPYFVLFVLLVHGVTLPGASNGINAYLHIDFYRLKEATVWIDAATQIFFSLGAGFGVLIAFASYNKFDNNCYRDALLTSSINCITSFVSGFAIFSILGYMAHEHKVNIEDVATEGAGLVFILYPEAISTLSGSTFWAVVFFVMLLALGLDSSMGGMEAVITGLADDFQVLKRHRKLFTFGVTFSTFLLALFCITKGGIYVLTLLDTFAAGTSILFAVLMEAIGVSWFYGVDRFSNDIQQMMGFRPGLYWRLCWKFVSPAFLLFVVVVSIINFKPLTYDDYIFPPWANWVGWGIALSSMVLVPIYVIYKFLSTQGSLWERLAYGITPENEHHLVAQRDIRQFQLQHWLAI
Chain of Sodium-dependent serotonin transporter (P31645 whole entry): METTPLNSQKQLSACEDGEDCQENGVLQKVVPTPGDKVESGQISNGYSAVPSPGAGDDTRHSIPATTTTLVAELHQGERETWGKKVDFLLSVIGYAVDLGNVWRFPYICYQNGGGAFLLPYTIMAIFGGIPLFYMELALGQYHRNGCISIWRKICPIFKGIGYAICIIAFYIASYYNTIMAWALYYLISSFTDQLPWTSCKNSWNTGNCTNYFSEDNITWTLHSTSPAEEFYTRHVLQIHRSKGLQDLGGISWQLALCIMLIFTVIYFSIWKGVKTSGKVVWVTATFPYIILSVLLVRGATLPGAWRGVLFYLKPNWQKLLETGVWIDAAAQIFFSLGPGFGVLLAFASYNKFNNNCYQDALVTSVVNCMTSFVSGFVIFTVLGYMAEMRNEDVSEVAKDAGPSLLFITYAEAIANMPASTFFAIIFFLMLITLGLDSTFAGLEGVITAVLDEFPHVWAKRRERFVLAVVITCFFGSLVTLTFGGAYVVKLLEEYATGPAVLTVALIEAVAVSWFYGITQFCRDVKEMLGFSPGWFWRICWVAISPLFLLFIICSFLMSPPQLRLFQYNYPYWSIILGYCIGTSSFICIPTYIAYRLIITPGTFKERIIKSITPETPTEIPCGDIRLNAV
Chain of Sodium-dependent dopamine transporter (Q01959 whole entry): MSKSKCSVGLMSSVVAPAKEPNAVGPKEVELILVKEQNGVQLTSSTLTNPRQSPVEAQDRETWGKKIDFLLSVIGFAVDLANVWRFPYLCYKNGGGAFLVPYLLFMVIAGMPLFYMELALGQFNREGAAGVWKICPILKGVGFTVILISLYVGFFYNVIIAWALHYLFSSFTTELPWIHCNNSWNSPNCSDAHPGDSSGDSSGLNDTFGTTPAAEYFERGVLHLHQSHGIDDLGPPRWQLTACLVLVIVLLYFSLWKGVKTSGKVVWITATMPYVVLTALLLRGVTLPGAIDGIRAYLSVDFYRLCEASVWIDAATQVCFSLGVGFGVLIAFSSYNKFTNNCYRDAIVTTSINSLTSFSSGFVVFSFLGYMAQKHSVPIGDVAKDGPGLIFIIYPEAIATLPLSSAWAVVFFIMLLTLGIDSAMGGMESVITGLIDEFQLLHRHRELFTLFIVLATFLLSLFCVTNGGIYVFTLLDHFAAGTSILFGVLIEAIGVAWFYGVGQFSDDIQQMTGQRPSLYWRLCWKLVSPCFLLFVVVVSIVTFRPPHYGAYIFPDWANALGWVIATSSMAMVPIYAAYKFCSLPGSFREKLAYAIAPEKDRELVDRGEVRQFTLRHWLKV
Chain of Histamine H1 receptor (P35367 whole entry): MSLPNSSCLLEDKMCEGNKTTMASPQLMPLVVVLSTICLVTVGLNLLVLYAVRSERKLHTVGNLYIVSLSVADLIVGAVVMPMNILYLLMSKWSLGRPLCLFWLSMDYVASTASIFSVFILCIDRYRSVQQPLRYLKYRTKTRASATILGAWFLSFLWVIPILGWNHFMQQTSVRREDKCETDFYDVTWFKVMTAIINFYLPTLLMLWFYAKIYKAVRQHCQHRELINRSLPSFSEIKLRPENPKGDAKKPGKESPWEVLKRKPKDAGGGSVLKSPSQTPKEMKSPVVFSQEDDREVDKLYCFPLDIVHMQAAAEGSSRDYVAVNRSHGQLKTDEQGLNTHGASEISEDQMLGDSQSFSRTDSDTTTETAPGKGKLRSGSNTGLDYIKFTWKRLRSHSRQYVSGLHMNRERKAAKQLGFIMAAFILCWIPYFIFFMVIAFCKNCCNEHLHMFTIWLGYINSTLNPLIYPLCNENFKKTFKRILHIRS

`CCN(CC)CCn1c2ccccc2c(=O)c2ccccc21` gave an IC50 [1] of over 10 µM, an IC50 [2] of over 10 µM and an IC50 [3] of 11.8 µM. For the same compound, the IC50 [4] was 7.5 µM, the IC50 [5] was over 10 µM and the IC50 [6] was 28.5 µM.
In the case of `O=c1c2ccccc2n(CCCCCCCl)c2ccccc12`, the IC50 [3] is reported as 1.3 µM, the IC50 [4] is reported as 2.6 µM and the IC50 [6] is reported as 59.5 µM.
With `CCN(CC)CCCn1c2ccccc2c(=O)c2ccccc21` the IC50 [1] was over 10 µM, the IC50 [2] was over 10 µM and the IC50 [3] was 8.1 µM. For the same compound, the IC50 [4] was 1.6 µM, the IC50 [5] was over 10 µM and the IC50 [6] was 22.5 µM.
Compound `CCN(CC)CCCCCn1c2ccccc2c(=O)c2ccccc21` has an IC50 [1] of over 10 µM, an IC50 [2] of 7.8 µM and an IC50 [3] of 3.7 µM. The IC50 [4] was 5.8 µM, the IC50 [5] was 9.1 µM and the IC50 [6] was 30.5 µM.
`CCN(CC)CCCCCCn1c2ccccc2c(=O)c2ccccc21` gave an IC50 [1] of over 10 µM, an IC50 [2] of 3.5 µM and an IC50 [3] of 3.2 µM. The IC50 [4] was 2.7 µM, the “Ratio IC50” value [7] was 0.17 and the “Ratio IC50” value [8] was 1.01. The IC50 [9] was 3.6 µM, the IC50 [10] was 0.596 µM and the “Ratio IC50” value [11] was 0.3. It also gave an IC50 [12] of 3.66 µM, an IC50 [5] of over 10 µM and an IC50 [6] of 26.4 µM. The “Ratio IC50” value [13] was 1 and the IC50 [14] was 4.5 µM.
`CCN(CC)CCCCCCCCn1c2ccccc2c(=O)c2ccccc21` gave an IC50 [3] of 2.6 µM, an IC50 [4] of 1.8 µM and an IC50 [6] of 17.6 µM.
Compound `CCN(CC)CCCCn1c2ccccc2c(=O)c2ccccc21` has an IC50 [1] of over 10 µM, an IC50 [2] of over 10 µM and an IC50 [3] of 7.6 µM. It also gave an IC50 [4] of 10.2 µM, an IC50 [5] of over 10 µM and an IC50 [6] of 34.5 µM.
`CN(C)CCC(c1ccc(Cl)cc1)c1ccccn1` (centres undefined) [CHLORPHENIRAMINE] gave an IC50 [3] of 61.2 µM, an IC50 [4] of 3.9 µM and an IC50 [6] of 33.4 µM.
For `CCNCCCC(C)Nc1ccnc2cc(Cl)ccc12` (centres undefined) [DESETHYLCHLOROQUINE], the IC50 [3] was 0.0182 µM and the IC50 [4] was 0.372 µM.

Reference: ChEMBL document CHEMBL1138538, “Design, synthesis, and evaluation of 10-N-substituted acridones as novel chemosensitizers in Plasmodium falciparum” (Antimicrob Agents Chemother, 2007)
